In brackets after ≈: the same amount, converted by molar mass.
Tests used:
Assay type in all cases: functional
Pseudomonas aeruginosa [1] = assay: Antibacterial activity against Pseudomonas aeruginosa PAO1 PAHUAC-27(ST-22) by broth microdilution method
Pseudomonas aeruginosa [2] = assay: Antipseudomonal activity against pseudomonas aeruginosa Pseudomonas aeruginosa 13/09-018 (ST-175) assessed as AmpC RNA level relative to Pseudomonas aeruginosa PAO1
Pseudomonas aeruginosa [3] = assay: Antipseudomonal activity against pseudomonas aeruginosa Pseudomonas aeruginosa PAHUAC-14 (ST-966) assessed as AmpC RNA level relative to Pseudomonas aeruginosa PAO1
Pseudomonas aeruginosa [4] = assay: Antipseudomonal activity against pseudomonas aeruginosa PAO deltadacBdeltadacC assessed as AmpC RNA expression by RT-PCR analysis relative to Pseudomonas aeruginosa PAO1
Pseudomonas aeruginosa [5] = assay: Antibacterial activity against Pseudomonas aeruginosa PAO1 deltaDdeltsDh2deltaDh3 by broth microdilution method
Pseudomonas aeruginosa [6] = assay: Antibacterial activity against Pseudomonas aeruginosa PAO1 deltadacBdeltadacC by broth microdilution method
Pseudomonas aeruginosa [7] = assay: Antipseudomonal activity against pseudomonas aeruginosa Pseudomonas aeruginosa PAHUAC-27(ST-22) assessed as AmpC RNA level relative to Pseudomonas aeruginosa PAO1
Pseudomonas aeruginosa [8] = assay: Antibacterial activity against Pseudomonas aeruginosa PAO1 deltadacB by broth microdilution method
Pseudomonas aeruginosa [9] = assay: Antipseudomonal activity against pseudomonas aeruginosa Pseudomonas aeruginosa 17/14-017 (ST-235) assessed as AmpC RNA level relative to Pseudomonas aeruginosa PAO1
Pseudomonas aeruginosa [10] = assay: Antipseudomonal activity against pseudomonas aeruginosa Pseudomonas aeruginosa 23/14-053 (ST-309) assessed as AmpC RNA level relative to Pseudomonas aeruginosa PAO1
Pseudomonas aeruginosa [11] = assay: Antibacterial activity against Pseudomonas aeruginosa PAO1 53/22-113 (ST-244) by broth microdilution method
Pseudomonas aeruginosa [12] = assay: Antibacterial activity against Pseudomonas aeruginosa PAO1 23/14-053 (ST-309) by broth microdilution method
Pseudomonas aeruginosa [13] = assay: Antibacterial activity against Pseudomonas aeruginosa PAO1 deltaC+pUCP-(PDC-5) by broth microdilution method
Pseudomonas aeruginosa [14] = assay: Antibacterial activity against Pseudomonas aeruginosa PAO1 deltaampD by broth microdilution method
Pseudomonas aeruginosa [15] = assay: Antipseudomonal activity against pseudomonas aeruginosa PAOdeltaC+pUCP-(PDC-5) assessed as AmpC RNA level relative to Pseudomonas aeruginosa PAO1
Pseudomonas aeruginosa [16] = assay: Antibacterial activity against Pseudomonas aeruginosa PAO1 deltadacBdeltapbpGdeltadacC by broth microdilution method
Pseudomonas aeruginosa [17] = assay: Antibacterial activity against Pseudomonas aeruginosa PAO1 36/14-210 (ST-235) by broth microdilution method
Pseudomonas aeruginosa [18] = assay: Antipseudomonal activity against pseudomonas aeruginosa PAOdeltaampD AmpC RNA level assessed as AmpC RNA level relative to Pseudomonas aeruginosa PAO1
Pseudomonas aeruginosa [19] = assay: Antipseudomonal activity against pseudomonas aeruginosa PAOdeltaC AmpC RNA level assessed as AmpC RNA level relative to Pseudomonas aeruginosa PAO1
Pseudomonas aeruginosa [20] = assay: Antipseudomonal activity against pseudomonas aeruginosa PAOdeltaC+pUCP-(PDC-1) assessed as AmpC RNA level relative to Pseudomonas aeruginosa PAO1
Pseudomonas aeruginosa [21] = assay: Antibacterial activity against Pseudomonas aeruginosa PAO1 by broth microdilution method
Pseudomonas aeruginosa [22] = assay: Antibacterial activity against Pseudomonas aeruginosa PAO1 6/04-224 (ST-175) by broth microdilution method
Pseudomonas aeruginosa [23] = assay: Antibacterial activity against Pseudomonas aeruginosa PAO1 PAHUAC-14 (ST-966) by broth microdilution method
Pseudomonas aeruginosa [24] = assay: Antipseudomonal activity against pseudomonas aeruginosa PAO1 AmpC RNA level assessed as AmpC RNA level relative to Pseudomonas aeruginosa PAO1
Pseudomonas aeruginosa [25] = assay: Antipseudomonal activity against pseudomonas aeruginosa Pseudomonas aeruginosa 6/04-224 (ST-175) assessed as AmpC RNA level relative to Pseudomonas aeruginosa PAO1
Pseudomonas aeruginosa [26] = assay: Antibacterial activity against PAOdeltaC by broth microdilution method
Pseudomonas aeruginosa [27] = assay: Antipseudomonal activity against pseudomonas aeruginosa PAO deltadacBdeltaampD assessed as AmpC RNA expression by RT-PCR analysis Pseudomonas aeruginosa PAO1
Pseudomonas aeruginosa [28] = assay: Antipseudomonal activity against pseudomonas aeruginosa Pseudomonas aeruginosa 36/14-210 (ST-235) assessed as AmpC RNA level relative to Pseudomonas aeruginosa PAO1
Pseudomonas aeruginosa [29] = assay: Antipseudomonal activity against Pseudomonas aeruginosa PAO1 deltadacB assessed as AmpC RNA expression by RT-PCR analysis relative to Pseudomonas aeruginosa PAO1
Pseudomonas aeruginosa [30] = assay: Antibacterial activity against Pseudomonas aeruginosa PAO1 17/14-017 (ST-235) by broth microdilution method
Pseudomonas aeruginosa [31] = assay: Antibacterial activity against Pseudomonas aeruginosa PAO1 deltadacBdeltaampD by broth microdilution method
Pseudomonas aeruginosa [32] = assay: Antibacterial activity against Pseudomonas aeruginosa PAO1 13/09-018 (ST-175) by broth microdilution method
Pseudomonas aeruginosa [33] = assay: Antipseudomonal activity against pseudomonas aeruginosa PAO deltaDdeltsDh2deltaDh3 assessed as AmpC RNA level relative to Pseudomonas aeruginosa PAO1
Pseudomonas aeruginosa [34] = assay: Antibacterial activity against Pseudomonas aeruginosa PAO1 deltaC+pUCP-(PDC-1) by broth microdilution method
Pseudomonas aeruginosa [35] = assay: Antipseudomonal activity against pseudomonas aeruginosa Pseudomonas aeruginosa 53/22-113 (ST-244) assessed as AmpC RNA level relative to Pseudomonas aeruginosa PAO1
Pseudomonas aeruginosa [36] = assay: Antipseudomonal activity against pseudomonas aeruginosa PAO deltadacBdeltapbpGdeltadacC assessed as AmpC RNA level relative to Pseudomonas aeruginosa PAO1

In the case of `CC(C)(O/N=C(\C(=O)N[C@@H]1C(=O)N2C(C(=O)[O-])=C(C[n+]3ccccc3)CS[C@H]12)c1csc(N)n1)C(=O)O` [CEFTAZIDIME], the MIC (Pseudomonas aeruginosa [1]) is reported as 32 µg/mL (≈ 58.5 µM), the “fold change (FC)” value (Pseudomonas aeruginosa [2]) is reported as 2.4 and the “fold change (FC)” value (Pseudomonas aeruginosa [3]) is reported as 586.3. The “fold change (FC)” value (Pseudomonas aeruginosa [4]) was 472.3, the MIC (Pseudomonas aeruginosa [5]) was 32 µg/mL (≈ 58.5 µM) and the MIC (Pseudomonas aeruginosa [6]) was 16 µg/mL (≈ 29.3 µM). For the same compound, the “fold change (FC)” value (Pseudomonas aeruginosa [7]) was 326.4, the MIC (Pseudomonas aeruginosa [8]) was 16 µg/mL (≈ 29.3 µM) and the “fold change (FC)” value (Pseudomonas aeruginosa [9]) was 32.8. For the same compound, the “fold change (FC)” value (Pseudomonas aeruginosa [10]) was 6.4, the MIC (Pseudomonas aeruginosa [11]) was 64 µg/mL (≈ 117 µM) and the MIC (Pseudomonas aeruginosa [12]) was 8 µg/mL (≈ 14.6 µM). For the same compound, the MIC (Pseudomonas aeruginosa [13]) was 16 µg/mL (≈ 29.3 µM), the MIC (Pseudomonas aeruginosa [14]) was 16 µg/mL (≈ 29.3 µM) and the “fold change (FC)” value (Pseudomonas aeruginosa [15]) was 4084.8. The MIC (Pseudomonas aeruginosa [16]) was 16 µg/mL (≈ 29.3 µM), the MIC (Pseudomonas aeruginosa [17]) was 128 µg/mL (≈ 234 µM) and the “fold change (FC)” value (Pseudomonas aeruginosa [18]) was 51.4. For the same compound, the “fold change (FC)” value (Pseudomonas aeruginosa [19]) was 0, the “fold change (FC)” value (Pseudomonas aeruginosa [20]) was 1933.4 and the MIC (Pseudomonas aeruginosa [21]) was 1 µg/mL (≈ 1.83 µM). For the same compound, the MIC (Pseudomonas aeruginosa [22]) was 32 µg/mL (≈ 58.5 µM), the MIC (Pseudomonas aeruginosa [23]) was 64 µg/mL (≈ 117 µM) and the “fold change (FC)” value (Pseudomonas aeruginosa [24]) was 1. The “fold change (FC)” value (Pseudomonas aeruginosa [25]) was 10.1, the MIC (Pseudomonas aeruginosa [26]) was 1 µg/mL (≈ 1.83 µM) and the “fold change (FC)” value (Pseudomonas aeruginosa [27]) was 1021.4. The “fold change (FC)” value (Pseudomonas aeruginosa [28]) was 18.6, the FC (Pseudomonas aeruginosa [29]) was 36 µg/mL and the MIC (Pseudomonas aeruginosa [30]) was 16 µg/mL (≈ 29.3 µM). The MIC (Pseudomonas aeruginosa [31]) was 32 µg/mL (≈ 58.5 µM), the MIC (Pseudomonas aeruginosa [32]) was 8 µg/mL (≈ 14.6 µM) and the “fold change (FC)” value (Pseudomonas aeruginosa [33]) was 1030.2. The MIC (Pseudomonas aeruginosa [34]) was 16 µg/mL (≈ 29.3 µM), the “fold change (FC)” value (Pseudomonas aeruginosa [35]) was 1415.3 and the “fold change (FC)” value (Pseudomonas aeruginosa [36]) was 1109.9.
